# Several values for one entry are separate records, joined by “and”; a condition that tells them apart may be missing. Equal entries are not always repeated. Structures can show the parent of a compound that is named as a salt.
# What was measured:
# [1] = molecular target: human RORγt ligand binding domain (RORγt LBD) (Homo sapiens (Human), UniProt P51449); assay: RORγt ThermoFluor assay (thermal shift, binding affinity); conditions: estimated from thermal shift concentration response
# Protocol: This approach is applicable to a wide variety of systems, and rigorous in theoretical interpretation through quantitation of equilibrium binding constants (KD).
# The shift in the melting point described as a ΔTm is proportional to the concentration and affinity of the ligand.
# ThermoFluor® experiments were carried out using instruments owned by Janssen Research and Discovery, L.L.C. through its acquisition of 3-Dimensional Pharmaceuticals, Inc. 1,8-ANS (Invitrogen) was used as a fluorescent dye. Protein and compound solutions are dispensed into black 384-well polypropylene PCR microplates (Abgene) and overlayed with silicone oil (1 μL, Fluka, type DC 200) to prevent evaporation.
# Bar-coded assay plates are robotically loaded onto a thermostatically controlled PCR-type thermal block and then heated at a typical ramp-rate of 1° C./min for all experiments. Fluorescence was measured by continuous illumination with UV light (Hamamatsu LC6) supplied via fiber optic and filtered through a band-pass filter (380-400 nm; >60D cutoff). Fluorescence emission of the entire 384-well plate was detected by measuring light intensity using a CCD camera (Sensys, Roper Scientific) filtered to detect 500±25 nm, resulting in simultaneous and independent readings of all 384 wells. Images were collected at each temperature, and the sum of the pixel intensity in a given area of the assay plate was recorded versus temperature. Reference wells contained RORγt without compounds, and the assay conditions were as follows: • 0.065 mg/mL RORγt • 60 μM 1,8-ANS • 100 mM Hepes, pH 7.0 • 10 mM NaCl • 2.5 mM GSH • 0.002% Tween-20
# Project compounds were arranged in a pre-dosed mother plate (Greiner Bio-one) wherein compounds are serially diluted in 100% DMSO by 1:2 from a high concentration of 10 mM over 12 columns within a series (column 12 is a reference well containing DMSO, no compound). The compounds were robotically dispensed directly into assay plates (1x=[…]) using a Hummingbird capillary liquid handling instrument (Digilab). Following compound dispense, protein and dye in buffer was added to achieve the final assay volume of 3 μL, followed by 1 μL of silicone oil.
# human RORγt LBD = human RORγt LBD (Homo sapiens (Human), UniProt P51449); assay: RORγt reporter assay (GAL4-RORγt LBD luciferase, HEK293T cells); assay type: cell-based; conditions: for RORγt reporter Assay, % inhibition @ 6 μM / IC50: HEK293T cells; for IC50: 24 hours compound treatment; for inhibition at 6 µM: HEK-293T, read-out: RORγt reporter Assay, % inhibition @ 6 μM, 6 μM, HEK293T cells
# [2] = system: IL-17 production by CD4 T cells; assay: Human Th17 assay; assay type: cell-based; conditions: IL-17 in supernatant after 3 days, human CD4+ T cells under Th17 differentiation
# Text: The human Th17 assay tests the effect of RORγt modulatory compounds on IL-17 production by CD4 T cells under conditions which favor Th17 differentiation.
# Total CD4^+ T cells were isolated from the peripheral blood mononuclear cells (PBMC) of healthy donors using a CD4^+ T cell isolation kit II, following the manufacturer's instructions (Miltenyi Biotec). Cells were resuspended in a medium of RPMI-1640 supplemented with 10% fetal bovine serum, penicillin, streptomycin, glutamate, and β-mercaptoethanol and were added to 96-well plates at 1.5×10^5 per 100 μL per well. 50 μL of compound at titrated concentrations in DMSO were added into each well at final DMSO concentration at 0.2%. Cells were incubated for 1 hour, then 50 μL of Th17 cell differentiation medium was added to each well. The final concentrations of antibodies and cytokines (R&D Systems) in differentiation medium were: 3×10^6/mL anti-CD3/CD28 beads (prepared using human T cell activation/expansion kit, Miltenyi Biotec), 10 μg/mL anti-IL4, 10 μg/mL anti-IFNγ, 10 ng/mL IL113, 10 ng/mL IL23, 50 ng/mL IL6, 3 ng/mL TGFβ and 20 U/mL IL2. Cells were cultured at 37° C. and 5% CO2 for 3 days. Supernatants were collected and the accumulated IL-17 in culture was measured by using MULTI-SPOT® Cytokine Plate following manufacture's instruction (Meso Scale Discovery). The plate was read using Sector Imager 6000, and IL-17 concentration was extrapolated from the standard curve. The IC50s were determined by GraphPad.
# human RORγt LBD, sequence (P51449 258-518): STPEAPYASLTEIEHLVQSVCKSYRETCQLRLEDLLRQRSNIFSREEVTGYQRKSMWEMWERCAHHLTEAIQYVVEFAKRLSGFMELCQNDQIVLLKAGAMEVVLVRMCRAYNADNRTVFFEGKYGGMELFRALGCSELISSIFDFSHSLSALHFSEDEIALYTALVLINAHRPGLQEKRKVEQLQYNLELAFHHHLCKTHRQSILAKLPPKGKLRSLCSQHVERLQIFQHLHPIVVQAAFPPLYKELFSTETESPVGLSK
# human RORγt ligand binding domain (RORγt LBD), sequence (P51449 other isoform, or with tags, fused parts or gaps): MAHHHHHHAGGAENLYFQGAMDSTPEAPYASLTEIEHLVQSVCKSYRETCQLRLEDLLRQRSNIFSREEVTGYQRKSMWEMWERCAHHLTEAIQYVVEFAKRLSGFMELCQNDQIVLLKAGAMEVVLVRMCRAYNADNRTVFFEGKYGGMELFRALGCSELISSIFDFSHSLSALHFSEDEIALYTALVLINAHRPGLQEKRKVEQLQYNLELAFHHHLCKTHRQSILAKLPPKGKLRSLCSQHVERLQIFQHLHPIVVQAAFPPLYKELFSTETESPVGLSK
SMILES,Kd [1] [µM],"RORγt reporter Assay, % inhibition @ 6 μM (human RORγt LBD) [%]",IC50 (human RORγt LBD),inhibition at 6 µM (human RORγt LBD) [%],"IC50 ([2]; Homo sapiens, CD4+ T, 72 h) [µM]",IC50 [2] [µM]
"CCN(CC)c1nc2ccc(C(O)(c3ccc(Cl)cc3)c3cncn3C)cc2c(Cl)c1Oc1ccccc1 (stereo not drawn) [Example 3a, (4-Chloro-2-(diethylamino)-3-phenoxyquinolin-6-yl)(4-chlorophenyl)(1-methyl-1H-imidazol-5-yl)methanol]",0.059,–,0.12 µM,96,0.2,–
"CCN(CC)c1nc2ccc(C(O)(c3ccc(Cl)cc3)c3cncn3C)cc2c(Cl)c1Nc1ccccc1 (stereo not drawn) [Example 45, (4-Chloro-2-(diethylamino)-3-(phenylamino)quinolin-6-yl)(4-chlorophenyl)(1-methyl-1H-imidazol-5-yl)methanol.TFA]",0.27,–,0.81 µM,91,–,–
"CN(c1ccccc1)c1c(Cl)nc2ccc(C(O)(c3ccc(Cl)cc3)c3cncn3C)cc2c1Cl (stereo not drawn) [Example 38, (4-Chlorophenyl)(2,4-dichloro-3-(methyl(phenyl)amino)quinolin-6-yl)(1-methyl-1H-imidazol-5-yl)methanol]",0.035,–,0.52 µM and ~1 µM,85,–,–
"Cn1cncc1C(O)(c1ccc(C(F)(F)F)nc1)c1ccc2nc(C#N)c(Oc3ccccc3)c(C#N)c2c1 (single isomer, unassigned) [Example 22c, 6-(Hydroxy(1-methyl-1H-imidazol-5-yl)(6-(trifluoromethyl)pyridin-3-yl)methyl)-3-phenoxyquinoline-2,4-dicarbonitrile]",0.097,88,0.68 µM,–,–,–
"CCOc1nc2ccc(C(O)(c3cccnc3)c3cccc(Cl)c3)cc2c(Cl)c1N(C)c1ccccc1 (stereo not drawn) [Example 36, (4-Chloro-2-ethoxy-3-(methyl(phenyl)amino)quinolin-6-yl)(3-chlorophenyl) (pyridin-3-yl)methanol.TFA]",0.032,–,0.089 µM,89,0.16,–
"Cn1cncc1C(O)(c1ccc(Cl)cc1)c1ccc2nc(Cl)c(Oc3ccccc3)c(Cl)c2c1 (stereo not drawn) [Example 1, (4-Chlorophenyl)(2,4-dichloro-3-phenoxyquinolin-6-yl)(1-methyl-1H-imidazol-5-yl)methanol]",0.11,–,0.67 µM,86,–,–
"CCN(CC)c1nc2ccc(C(O)(c3ccc(C(F)(F)F)nc3)c3cncn3C)cc2c(C(F)(F)F)c1Oc1ccc(Cl)cc1 (single isomer, unassigned) [Example 27b, (3-(4-Chlorophenoxy)-2-(diethylamino)-4-(trifluoromethyl)quinolin-6-yl)(1-methyl-1H-imidazol-5-yl)(6-(trifluoromethyl)pyridin-3-yl)methanol]",–,–,–,92,–,0.051

# The remaining compounds from weak to strong by Kd [1], led by results:
Kd [1] [µM],"RORγt reporter Assay, % inhibition @ 6 μM (human RORγt LBD) [%]",IC50 (human RORγt LBD),inhibition at 6 µM (human RORγt LBD) [%],"IC50 ([2]; Homo sapiens, CD4+ T, 72 h) [µM]",IC50 [2] [µM],SMILES
0.031,–,0.36 µM,94,0.1,–,"CN(C)c1nc2ccc(C(O)(c3ccc(Cl)cc3)c3cncn3C)cc2c(Cl)c1Oc1ccccc1 (stereo not drawn) [Example 16, (4-Chloro-2-(dimethylamino)-3-phenoxyquinolin-6-yl)(4-chlorophenyl)(1-methyl-1H-imidazol-5-yl)methanol]"
0.0057,–,0.11 µM,97,0.04,–,"Cn1cncc1C(O)(c1ccc(Cl)cc1)c1ccc2nc(C#N)c(Oc3ccccc3)c(C#N)c2c1 (stereo not drawn) [Example 20, 6-((4-chlorophenyl)(hydroxy)(1-methyl-1H-imidazol-5-yl)methyl)-3-phenoxyquinoline-2,4-dicarbonitrile.TFA]"
0.0029,48,~6 µM and > 6 µM,–,–,–,"Cn1cncc1C(O)(c1ccc(C(F)(F)F)nc1)c1ccc2nc(C#N)c(Oc3ccccc3)c(C#N)c2c1 (single isomer, unassigned) [Example 22b, 6-(Hydroxy(1-methyl-1H-imidazol-5-yl)(6-(trifluoromethyl)pyridin-3-yl)methyl)-3-phenoxyquinoline-2,4-dicarbonitrile]"
0.0018,–,0.14 µM,93,–,–,"Cn1cncc1C(O)(c1ccc(C(F)(F)F)nc1)c1ccc2nc(N3CCC3)c(Oc3ccc(Cl)cc3)c(Cl)c2c1 (stereo not drawn) [Example 30a, (2-(Azetidin-1-yl)-4-chloro-3-(4-chlorophenoxy)quinolin-6-yl)(1-methyl-1H-imidazol-5-yl)(6-(trifluoromethyl)pyridin-3-yl)methanol]"
